Test results: patent US10562839B2, “Medium chain fatty acid esters of β-hydroxybutyrate and butanediol and compositions and methods for using same” (The J. David Gladstone Institutes, priority 2016, dated 2020)

Experiments:
[1] = Pilot feeding study, food supplemented with esters of β-hydroxybutyrate and butanediol; format: in vivo, C57BL/6 male mice; settings: 10% w/w in chow
Text: Different esters of β-hydroxybutyrate and butanediol were synthesized as described above and purified for testing in mice. The esters of β-hydroxybutyrate and butanediol that were supplemented into the diet of the mice in this study were as follows: 1) C8 diesters of butanediol (C8x2-BD); 2) C8 monoesters of β-hydroxybutyrate (C8-BHB); 3) C6 diesters of β-hydroxybutyrate (C6x2-BHB); 4) C6 monoesters of β-hydroxybutyrate (C6-BHB); and 5) C6 diesters of butanediol (C6x2-BD). Food compositions supplemented with 1,3-butanediol were also tested. Compounds were mixed at 10% w/w in ground normal chow (20% calories from protein) to match standard vivarium feed. The food was provided in a glass jar inside the animal cage. n=2 mice/condition, 18 mice total. All mice were 12 month-old C57BL/6 males. Mice were placed in individual cages to record food intake more precisely. Food was switched back to normal chow at 72 hrs (ground and in a glass jar).

[2] = Plasma BHB levels after intraperitoneal injection of C6 and C8 esters; format: in vivo, wild-type C57BL/6 male mice; settings: for blood BHB levels: intraperitoneal injection, 50 uL and 100 uL (approx. 1-3 g/kg), blood up to 6 hours after injection
Procedure: C6 and C8 esters of butanediol and C6 and C8 esters of β-hydroxybutyrate were synthesized as described above and purified for testing in wild-type C57BL/6Ncrl male mice obtained from Charles River Laboratories. Mice were 8 months old at the time of the experiment. The biological function of C6 and C8 esters of butanediol and β-hydroxybutyrate was tested by intraperitoneal injection at two doses each, 50 uL and 100 uL. Injection was performed approximately 9 am (mice are maintained on 7a-7p light-dark cycle) and mice had access to food and water at all times. The molar quantity injected varied from 0.13-0.41 millimoles depending on the compound and dose. The subject mice weighed approximately 30 grams, so the quantity of compound injected ranged approximately from 1 g/kg to 3 g/kg. For comparison, these amounts could theoretically supply about 1/20 of a mouse's daily caloric needs—equivalent in humans to around 100 calories. Blood was drawn by distal tail nick just prior to injection (baseline) and at 30 min, 1 hour, 2 hours, 4 hours, and 6 hours after injection. Approximately 40 uL of blood was collected into lithium-heparin microvettes (Sarstedt CB-300LH) and subsequently centrifuged 15 min at 1500×G at 4° C. to separate plasma. Plasma BHB levels were determined by a colorimetric enzymatic assay (Stanbio Laboratory 2440-058).

[3] = Pilot feeding study, food supplemented with C6 monoester of β-hydroxybutyrate; format: in vivo, C57BL/6 male mice
Procedure: C6 monoester of β-hydroxybutyrate was synthesized as described above and purified for testing in mice. The C6 monoester of β-hydroxybutyrate was mixed into ground control food (10% calories from protein), the same control diet used in the above examples involving ketogenic and control diet. The food was placed in a glass jar inside the animal cage at the start of the nighttime feeding cycle, 19:00 h. Different concentrations of the C6 monoester of β-hydroxybutyrate (w/w) were mixed into the control diet to determine which concentration was sufficient to raise BHB levels in the mice. n=4 mice/condition (2 mice per cage). All mice were 12 month-old C57BL/6 males.

[4] = Plasma BHB after intraperitoneal injection in APPJ20 mice; format: in vivo; settings: approximately 70-80 minutes after i.p. injection; from a median of approximately 200 μM
Procedure: (§1) EEGs were recorded from APPJ20 mice before and after intraperitoneal injection of C6-BHB, or an equivalent volume of saline. Following completion of the first 50 min recording, the injection was performed. Mice were then allowed to recover for 20 minutes in their home cage, followed by the second 50 min EEG recording. Blood was drawn immediately following completion of the second EEG session in order to measure plasma BHB levels (as described in Example 4). The lower of the two previously tested doses from Example 4 was injected, 50 μL per 30 g body weight, which is approximately 1.5 g/kg and approximately 0.2 millimoles.
(§2) During the EEG recordings, mice were freely moving in a transparent cylinder approximately the size of a home cage. Methodology for recording and analysis of EEGs and video tracking for movement was described in Example 5. Methodology for blood draws and plasma BHB measurement was described in Example 4.

[5] = test system: APPJ20 mice; assay: EEG epileptiform spikes before and after intraperitoneal injection of C6-BHB; format: in vivo
Procedure: C6 and C8 esters of butanediol and C6 and C8 esters of β-hydroxybutyrate were synthesized as described above. The C6 ester of β-hydroxybutyrate was tested for efficacy in suppressing spikes in APPJ20 mice by intraperitoneal injection into 1-2 year-old APPJ20 mice including both male and female mice. The APPJ20 mice were described in Example 5.
as §1, §2
The study used a cross-over design where all mice were injected with both C6-BHB and normal saline on different days, with at least 48 hours between injections. Data analysis was limited to mice that completed all injections and EEG recordings.

[6] = Feeding study, food supplemented with C6 diesters of β-hydroxybutyrate; format: in vivo, C57BL/6 male mice; settings: 10% w/w in diet, eighth night
Text: Based on the results of the above Pilot studies, the C6 diesters of β-hydroxybutyrate were selected for a longer study with a greater number of mice to see if it would remain ketogenic even after food intake normalized. C6 diesters of β-hydroxybutyrate were synthesized as described above and purified for testing in mice. The C6 diesters of β-hydroxybutyrate were mixed at 10% w/w into ground standard chow diet (20% calories from protein), which was re-formed into pellets. Re-pelleted food was used to minimize any variable effects from a change in diet texture to ground.
The pelleted food was consumed by the mice after being placed in a glass jar in the animal cage. Four mice per diet were tested, with the mice individually caged. All mice were 12 month-old C57BL/6 males. Daily weight and caloric intake was monitored and blood was drawn for glucose and β-hydroxybutyrate levels on the eighth night. […] By the 7th night, the weights of the mice stabilized and 24 hour caloric intake was similar between the control diet and the mice that consumed food supplemented with C6 esters of β-hydroxybutyrate.

SMILES: CCCCCCCC(=O)O[C@H](C)CC(=O)OCC [C8-BHB]
- hypoglycaemias [1]: can be explained by fasting
- blood concentration of β-hydroxybutyrate ([1]; targeted 500 μM threshold): high BHB value
- blood BHB levels [2]: increased BHB levels to that seen on a ketogenic diet (0.5-2 mM), or after an overnight fast (1-3 mM)

SMILES: CCCCCC(=O)O[C@H](C)CC(=O)OCC [C6-BHB]
- BHB level in the blood ([3]; 2.5% or 5% by weight in food): slight increase in BHB level in the blood
- BHB level in the blood against the targeted threshold ([3]; 2.5% or 5% by weight in food): ≤ 500
- β-hydroxybutyrate concentration in blood ([3]; 10% or 20% by weight in food, probably explained by fasting): greater increase in β-hydroxybutyrate concentration
- hypoglycaemias [1]: likely a result of the compound
- plasma BHB levels, median [4]: approximately 600 μM
- side effect observed ([2]; higher dose (100 uL), intraperitoneal): mild sedation
- blood BHB levels [2]: increased BHB levels to that seen on a ketogenic diet (0.5-2 mM), or after an overnight fast (1-3 mM)
- epileptiform spikes ([5]; after i.p. 50 μL per 30 g body weight, saline 1.25 spikes/min): 0.82 spikes/min
- reduction of epileptiform spikes compared to saline injection ([5]; i.p. 50 μL per 30 g body weight (approx. 1.5 g/kg), 50 min EEG): approximately 35%
- epileptiform spikes after injection ([5]; i.p. injection, 50 min EEG): reduces spikes compared to both pre-injection baselines and injection of saline
- spike reduction compared to after saline, at the individual mouse level ([5]; i.p. injection, P<0.05): significant reductions for most mice

SMILES: CCCCCCOC(=O)C[C@@H](C)OC(=O)CCCCC [C6x2-BHB]
- plasma β-hydroxybutyrate against targeted threshold [6]: ≥ 500 µM
- β-hydroxybutyrate plasma concentrations versus control diet ([6]; normal caloric intake): greater β-hydroxybutyrate plasma concentrations

SMILES: CCCCCC(=O)OCC [C6, reference compound]
- hypoglycaemias [1]: can be explained by fasting
